Drawing on US20260008775A1, “AZOLE MODULATORS OF CHOLESTEROL BIOSYNTHESIS AND THEIR USE FOR PROMOTING REMYELINATION” (GENENTECH, INC., priority 2022, published 2026), this text covers Ki and EC50 for nine compounds.

For assay [1], the target named is human emopamil binding protein and human 7-dehydrocholesterol reductase (hEBP-DHCR7) (Homo sapiens (Human), UniProt Q15125). The assay can be described thus: hEBP-DHCR7 radioligand binding assay (filter binding, membranes of co-expressing HEK293 cells). As to conditions: competition with [3H] radioligand, 8 doses 0.06 to 5000 nM, Ki calculated from IC50. In outline:
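Compound, either single dose 1 μM or eight 5-fold dilutions from 0.06 to 5000 nM, competed with a [3H]-labelled ligand added at 25 nM for binding to co-expressing HEK293 membranes. IC50 came from nonlinear regression, with full block and DMSO as controls, then Cheng–Prusoff conversion to Ki.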

Assay [2] has as its system zymostenol accumulation (EBP) in EpiSC-derived OPCs. The assay can be described thus: GC/MS-based sterol profiling, zymostenol accumulation in EpiSC-derived OPCs. Type of assay: cell-based, mouse. As to conditions: Mus musculus, 24 h, EpiSC-derived OPCs, 24 hr, 8 doses from 0.15 nM to 333 nM; read-out: Mouse Zymostenol GCMS EC50. The method in brief: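 Zymostenol level is expressed relative to that after 24 h with 100 nM positive-control reference, measured by full-scan GC/MS (m/z 458) with cholesterol-d7 internal standard after BSTFA derivatisation. Cells were EpiSC-derived OPCs, 100,000/well in N2B27 without growth factors, treated 24 h, from two or more independent platings.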

For assay [3], the system named is EpiSC-derived OPCs. Briefly: In vitro phenotypic screening of OPCs, MBP high-content imaging (percentage of oligodendrocytes). The format is cell-based, mouse. As to conditions: Mus musculus, 72 h, 3 days, MBP stain, dose-response 0.5 nM to 1000 nM; read-out: OPC EC50. The method in brief: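 EC50 was fitted by Hill equation to the MBP-positive oligodendrocyte percentage from imaging of fixed, MBP- and DAPI-stained cells. Treatment lasted 3 days at 37 °C, final doses 0.5–1000 nM over 8 points, in growth factor-free N2B27. Cells were EpiSC-derived OPCs, tested in at least two independent platings.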

Sequence of human emopamil binding protein and human 7-dehydrocholesterol reductase (hEBP-DHCR7) (Q15125 whole entry): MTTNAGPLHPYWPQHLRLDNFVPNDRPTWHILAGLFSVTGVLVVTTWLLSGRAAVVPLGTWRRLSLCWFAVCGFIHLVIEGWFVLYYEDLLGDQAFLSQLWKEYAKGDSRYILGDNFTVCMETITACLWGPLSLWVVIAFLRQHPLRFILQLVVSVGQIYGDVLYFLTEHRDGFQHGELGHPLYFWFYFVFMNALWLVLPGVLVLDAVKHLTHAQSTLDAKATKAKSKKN

One may read the Ki as a dissociation constant, usually derived from enzyme kinetics or from competition with a known ligand. By EC50 is commonly meant the concentration needed to bring the measured effect to its halfway point. For `CC(C)n1nc(-c2cccc(C(F)(F)F)n2)nc1[C@H]1[C@@H]2C[C@@H](N3CCOC[C@H]3C)C[C@@H]21` [Compound 72, (R)-4-((1R,3s,5S,6R)-6-(1-Isopropyl-3-(6-(trifluoromethyl)pyridin-2-yl)-1H-1,2,4-triazol-5-yl)bicyclo[3.1.0]hexan-3-yl)-3-methylmorpholine], the Ki in assay [1] is 1170 nM. Besides, the results for the EC50 in assay [2] and in assay [3] were 333 nM and 980 nM, respectively.

`CC(C)n1nc(-c2cccc(C(F)(F)F)n2)nc1[C@H]1[C@@H]2C[C@H](N3CCOC[C@H]3C)C[C@@H]21` [Compound 73, (R)-4-((1R,3r,5S,6R)-6-(1-isopropyl-3-(6-(trifluoromethyl)pyridin-2-yl)-1H-1,2,4-triazol-5-yl)bicyclo[3.1.0]hexan-3-yl)-3-methylmorpholine]: the Ki in assay [1] was 109 nM. For the same compound, the figures for the EC50 in assay [2] and in assay [3] were 3.95 nM and 8.41 nM, respectively.

With `CC(C)n1nc(-c2cccc(OC(F)F)c2)nc1[C@H]1[C@@H]2C[C@H](N3CCOC[C@H]3C)C[C@@H]21` [Compound 76, (R)-4-((1R,3r,5S,6R)-6-(3-(3-(Difluoromethoxy)phenyl)-1-isopropyl-1H-1,2,4-triazol-5-yl)bicyclo[3.1.0]hexan-3-yl)-3-methylmorpholine], the Ki in assay [1] is 15 nM. In addition, the 50% effective concentration (EC50) in assay [2] was determined as 1.18 nM; in assay [3] it was 1.56 nM.

Regarding `COCCN1CCN([C@H]2CC[C@@H](c3nc(-c4ccc(C(F)(F)F)nc4)nn3C(C)C)C2)CC1` [Compound 83, 1-((1S,3R)-3-(1-Isopropyl-3-(6-(trifluoromethyl)pyridin-3-yl)-1H-1,2,4-triazol-5-yl)cyclopentyl)-4-(2-methoxyethyl) piperazine], the Ki in assay [1] was 10.9 nM. Moreover, the concentration giving a half-maximal response (EC50) in assay [2] amounted to 12.5 nM; in assay [3] it was 78.4 nM.

Turning to `CC(C)n1nc(-c2cnc(C(F)(F)F)nc2)nc1[C@H]1CC[C@@H](N2CCOCC2)C1` [Compound 95, 4-((1R,3S)-3-(1-Isopropyl-3-(2-(trifluoromethyl)pyrimidin-5-yl)-1H-1,2,4-triazol-5-yl)cyclopentyl)morpholine], in assay [1], the Ki was 33.3 nM. For the same compound, the EC50 in assay [2] turned out to be 20.3 nM; in assay [3] it was 136 nM.

As for `CC(C)n1nc(-c2cnc(C(F)(F)F)nc2)cc1[C@H]1[C@@H]2C[C@H](N3CCOC[C@H]3C)C[C@@H]21` [Compound 97, (R)-4-((1R,3r,5S,6R)-6-(1-Isopropyl-3-(2-(trifluoromethyl)pyrimidin-5-yl)-1H-pyrazol-5-yl)bicyclo[3.1.0]hexan-3-yl)-3-methylmorpholine], the Ki in assay [1] is 15.1 nM. Besides, the EC50 in assay [2] amounted to 3.87 nM; in assay [3], 11.4 nM.

Regarding `CC(C)n1nc(-c2ccnc(C(F)(F)F)n2)cc1[C@H]1[C@@H]2C[C@@H](N3CCOCC3)C[C@@H]21` [Compound 98, 4-((1R,3s,5S,6r)-6-(1-Isopropyl-3-(2-(trifluoromethyl)pyrimidin-4-yl)-1H-pyrazol-5-yl)bicyclo[3.1.0]hexan-3-yl)morpholine], the Ki in assay [1] is 11.7 nM. Also, the figures for the EC50 in assay [2] and in assay [3] were 4.86 nM and 30.8 nM, respectively.

Regarding `CC(C)n1nc(-c2ccnc(C(F)(F)F)n2)cc1[C@H]1[C@@H]2C[C@H](N3CCOC[C@@H]3C)C[C@@H]21` [Compound 101, (S)-4-((1R,3r,5S,6S)-6-(1-Isopropyl-3-(2-(trifluoromethyl)pyrimidin-4-yl)-1H-pyrazol-5-yl)bicyclo[3.1.0]hexan-3-yl)-3-methylmorpholine], in assay [1], the inhibitory constant (Ki) is 7.22 nM. For the same compound, the EC50 in assay [2] was 1.1 nM; in assay [3] it was 2.02 nM.

For the compound `CC(C)n1nc(-c2ccnc(C(F)(F)F)n2)cc1[C@H]1[C@@H]2C[C@H](N3CCOC[C@H]3C)C[C@@H]21` [Compound 103, (R)-4-((1R,3r,5S,6S)-6-(1-Isopropyl-3-(2-(trifluoromethyl)pyrimidin-4-yl)-1H-pyrazol-5-yl)bicyclo[3.1.0]hexan-3-yl)-3-methylmorpholine], the Ki in assay [1] is 36.1 nM. In addition, the values for the EC50 in assay [2] and in assay [3] were 9.34 nM and 93.4 nM, respectively.
